Data from patent publication EP4122461A1 (priority 2021, dated 2023).

Legend:
[1] = tested on: SARS-2-S-driven cell entry; type: cell-based, SARS-CoV-2
[2] = tested on: SARS-CoV-2 isolate hCoV-19/Germany/FI1103201/2020; type: cell-based; settings: PCLS from a single donor; Fig. 1C
[3] = in vivo; cited from earlier work
[4] = blood and urine; cited from earlier work
[5] = across a 100-fold dose range; cohort of healthy subjects; cited from earlier work

| SMILES | IC50 [1] | inhibitory effects in human PCLS [2] | SARS-CoV-2 cell entry is inhibited [1] | plasma distribution and elimination [3] | stability of ester and amide groups [4] | tolerability [5] |
| --- | --- | --- | --- | --- | --- | --- |
| CN(C)C(=O)COC(=O)Cc1ccc(OC(=O)c2ccc(NC(=N)N)cc2)cc1 [Camostat, camostat] | 151 nM | comparable | – | – | – | – |
| COC(=O)[C@H](Cc1cccc(C(=N)N)c1)[C@@H](C)NC(=O)c1ccc(-c2cc[n+]([O-])cc2)cc1 [Otamixaban, otamixaban] | 18700 nM | comparable | 36% | rapid plasma distribution and elimination | stable | well tolerated |
| N=C(N)c1ccc2cc(OC(=O)c3ccc(N=C(N)N)cc3)ccc2c1 [Nafamostat, nafamostat] | 11.8 nM | – | – | – | – | – |
